Laboratory results as given in patent publication US20130281544A1, “HEPATOPROTECTANT ACTIVITY OF GARCINOL” (priority 2010, published 2013).

Tested on: carbon tetrachloride induced liver damage in rats
Assay: Bilirubin and serum enzymes ALT, AST, ALP in carbon tetrachloride induced liver damage
Type: in vivo, Male Wistar Rats
Conditions: CCl4; for ALP percent change / ALT percent change / AST percent change / Bilirubin percent change / ALP / ALT / AST / Bilirubin: serum; for ALP / ALT / AST / Bilirubin: Mean ± SE
Experimental: Doses of Garcinol (GC) used for the study: 1.25, 2.5, 5, 10 mg/kg p.o.
Standard drug: Silymarin (50 mg/kg) p.o.
Liver injury was induced by administration of carbon tetrachloride (CCl4) mixed with liquid paraffin (5 fold dilution). Animals were given single dose of CCl4 at 1 ml/kg, p.o. followed by the administration of garcinol (Table 2). [(i) Bramanti G, Murmann W, Pierini P and Comporti M (1978). Effect of cicloxilic acid on CCl4-induced liver injury. Drug Research 28: 1112-1217. (ii) B Singh, A K Saxena, B K Chandan, K K Anand (1998). Hepatoprotective activity of Verbenalin on experimental liver damage in rodents. Fitoterapia LXIX 2: 135-140. (iii) B. K. Chandan, A. K. Sharma, K. K. Anand Boerhaavia difiusa: A study of its hepatoprotective activity. Journal of Ethnopharmacology, Volume 31, Issue 3, March 1991, Pages 299-307].
Blood was collected from the retro-orbital plexus of experimental animals and no anti-coagulant was added. Blood was made to stand at room temperature for 1 hour. It was then centrifuged and clear serum was separated. The serum was then stored for analysis. Reference: (Magari et al., 2004).
(ASPARTATE AMINOTRANSFERASE and ALANINE AMINOTRANSFERASE), Reference: Ritman S, Frankel S, (1957). A colorimeteric method for the determination of serum glutamic oxaloacetic and glutamic pyruvic transaminases. American Journal of Clinical Pathology; 28: 56-63.
0.2 ml of serum, collected from test and control samples, was mixed with 1.0 ml of buffer solution and incubated for 60 min at 37° C. in a water bath. After the addition of 1.0 ml of chromogen solution, the samples were kept at room temperature for 20 minutes for the reaction to proceed and 10 ml NaOH was added. The optical density was red at 546 nm after 5 min. To the blank, serum was added after the addition of chromogen solution.
(ALKALINE PHOSPHATASE), Reference: Klaus Walter and Schutt C. (1974). Acid and alkaline phosphatase in serum. In: Methods of Enzymatic Analysis. Eds. Hans Ulrich Bergmeyer, Verlag ChemieWeinheim, Academic press, Inc. New York, 2nd Edition, Vol. 2, pp. 855-64.
Alkaline phosphatase activity measurement is based on the ability of the enzyme to hydrolyze p-nitrophenol phosphate under alkaline conditions. The cleaved product p-nitrophenol is yellow in alkaline solution and is measured at 400-420 nm (Klaus and Schutt, 1974). 2.0 ml of buffered substrate was taken in the tubes ‘Test’ ‘Control’ and ‘Blank’ followed by addition of serum and distilled water (0.1 ml) in ‘Test’ and ‘Blank’ respectively and incubated in a water bath for 30 minutes at 25° C. After incubation sodium hydroxide was added (0.25 N, 2 ml) to all the tubes, which was followed by serum (0.1 ml) to the tubes marked ‘Control’. The yellow colour formed was measured spectrophotometrically against blank at 410 nm.
[BILIRUBIN (BRBN)], Reference: Malloy H T and Evelyn K A (1937). The determination of bilirubin with photoelectric colorimeter. Journal of Biological Chemistry 119: 481-490.
Serum bilirubin was estimated by the method of Malloy and Evelyn (1937). In the two sets of test tubes marked ‘Test’ and ‘Control’, serum (0.2 ml) and distilled water (1.8 ml) were added. To the tubes marked ‘Test’ and ‘Standard’ diazo reagent (0.5 ml) was added. To the test tubes marked ‘Control’ and ‘Blank’ diazo blank (0.5 ml) was added. Finally methanol (2.5 ml) was added into each test tube. The tubes were mixed and allowed to stand for 30 minutes in dark. The tubes were read after 10 minutes at 540 nm.

## C=C(C)[C@@H](CC=C(C)C)C[C@@]12C[C@@H](CC=C(C)C)C(C)(C)[C@@](CC=C(C)C)(C(=O)C(C(=O)c3ccc(O)c(O)c3)=C1O)C2=O [Garcinol]
1.25 mg/kg p.o.
  Average Protection: 12.63%
  ALP percent change: (10.79) %
  ALT percent change: (12.84) %
  AST percent change: (14.95) %
  Bilirubin percent change: (11.96) %
  ALP: 78.49 ± 6.58 μmol/min/lt
  ALT: 1272.50 ± 109.19 μmol/min/lt
  AST: 746.81 ± 36.93 μmol/min/lt
  Bilirubin: 1.03 ± 0.04 mg %
2.50 mg/kg p.o.
  Average Protection: 24.99%
  ALP percent change: (20.08) %
  ALT percent change: (29.65) %
  AST percent change: (26.32) %
  Bilirubin percent change: (23.93) %
  ALP: 70.32 ± 3.89 μmol/min/lt
  ALT: 1027.07 ± 68.26 μmol/min/lt
  AST: 646.90 ± 50.53 μmol/min/lt
  Bilirubin: 0.89 ± 0.05 mg %
5.00 mg/kg p.o.
  Average Protection: 38.07%
  ALP percent change: (32.73) %
  ALT percent change: (43.24) %
  AST percent change: (42.98) %
  Bilirubin percent change: (33.33) %
  ALP: 59.19 ± 4.45 μmol/min/lt
  ALT: 828.59 ± 46.56 μmol/min/lt
  AST: 500.66 ± 49.22 μmol/min/lt
  Bilirubin: 0.78 ± 0.04 mg %
10.00 mg/kg p.o.
  Average Protection: 36.87%
  ALP percent change: (32.15) %
  ALT percent change: (38.94) %
  AST percent change: (40.50) %
  Bilirubin percent change: (35.89) %
  ALP: 59.70 ± 3.69 μmol/min/lt
  ALT: 891.36 ± 45.72 μmol/min/lt
  AST: 522.43 ± 57.50 μmol/min/lt
  Bilirubin: 0.75 ± 0.04 mg %
